Measured values: PubChem BioAssay AID1963968 (Molecular Pharmacology Branch, DTP, NCI, 2024)

Tested on: 945468-187-T-J3-PDC spheroids with HUVEC/MSC, viability
Assay: Anticancer human tumor 945468-187-T-J3-PDC patient-derived rectal carcinoma cell line growth inhibition [PI3K]
Details: for IC50: curve of first compound; for viability, T/C: stronger effect = lower value; active means viability on the fitted dose curve at most 10% of control; inactive means the rest
Summary of the method: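 Spheroid viability read-out. Co-cultures contained the tumor line plus HUVEC and human MSCs. Each agent was paired with a PI3K inhibitor (inavolisib, alpelisib, duvelisib, copanlisib) across half-log dilutions starting at clinical Cmax, or at 10 microM when Cmax was unknown.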

[1] = second compound 0.0316 µM, first compound 0.0316 µM
[2] = second compound 0.0316 µM, first compound 0.1 µM
[3] = second compound 0.0316 µM, first compound 0.316 µM
[4] = second compound 0.0316 µM, first compound 1 µM
[5] = second compound 0.0316 µM, first compound 3.16 µM
[6] = second compound 0.0316 µM, first compound 10 µM
[7] = second compound 0.1 µM, first compound 0.0316 µM
[8] = second compound 0.1 µM, first compound 0.1 µM
[9] = second compound 0.1 µM, first compound 0.316 µM
[10] = second compound 0.1 µM, first compound 1 µM
[11] = second compound 0.1 µM, first compound 3.16 µM
[12] = second compound 0.1 µM, first compound 10 µM
[13] = second compound 0.316 µM, first compound 0.0316 µM
[14] = second compound 0.316 µM, first compound 0.1 µM
[15] = second compound 0.316 µM, first compound 0.316 µM
[16] = second compound 0.316 µM, first compound 1 µM
[17] = second compound 0.316 µM, first compound 3.16 µM
[18] = second compound 0.316 µM, first compound 10 µM
[19] = second compound 1 µM, first compound 0.0316 µM
[20] = second compound 1 µM, first compound 0.1 µM
[21] = second compound 1 µM, first compound 0.316 µM
[22] = second compound 1 µM, first compound 1 µM
[23] = second compound 1 µM, first compound 3.16 µM
[24] = second compound 1 µM, first compound 10 µM
[25] = second compound 3.16 µM, first compound 0.0316 µM
[26] = second compound 3.16 µM, first compound 0.1 µM
[27] = second compound 3.16 µM, first compound 0.316 µM
[28] = second compound 3.16 µM, first compound 1 µM
[29] = second compound 3.16 µM, first compound 3.16 µM
[30] = second compound 3.16 µM, first compound 10 µM
[31] = second compound 10 µM, first compound 0.0316 µM
[32] = second compound 10 µM, first compound 0.1 µM
[33] = second compound 10 µM, first compound 0.316 µM
[34] = second compound 10 µM, first compound 1 µM
[35] = second compound 10 µM, first compound 3.16 µM
[36] = second compound 10 µM, first compound 10 µM
[37] = second compound 0.0316 µM, first compound 0.00316 µM
[38] = second compound 0.0316 µM, first compound 0.01 µM
[39] = second compound 0.1 µM, first compound 0.00316 µM
[40] = second compound 0.1 µM, first compound 0.01 µM
[41] = second compound 0.316 µM, first compound 0.00316 µM
[42] = second compound 0.316 µM, first compound 0.01 µM
[43] = second compound 1 µM, first compound 0.00316 µM
[44] = second compound 1 µM, first compound 0.01 µM
[45] = second compound 3.16 µM, first compound 0.00316 µM
[46] = second compound 3.16 µM, first compound 0.01 µM
[47] = second compound 10 µM, first compound 0.00316 µM
[48] = second compound 10 µM, first compound 0.01 µM
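Further: spheroids exposed to agents for 7 days before viability read.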
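Wherever viability, T/C is given: 100% = DMSO vehicle control viability.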

CC(C)NCC(C(=O)N1CCN(c2ncnc3c2C(C)CC3O)CC1)c1ccc(Cl)cc1 (stereo not given) + Cc1nc(NC(=O)N2CCCC2C(N)=O)sc1-c1ccnc(C(C)(C)C(F)(F)F)c1
303 nM: IC50 (second compound 10 µM)
2900 nM: IC50 (second compound 1 µM)
5360 nM: IC50 (second compound 0.316 µM)
> 10000 nM: IC50 (second compound 0.0316 µM) | IC50 (second compound 0.1 µM)
inactive: viability, T/C [1] 109% | viability, T/C [2] 116% | viability, T/C [3] 84.4% | viability, T/C [4] 94.1% | viability, T/C [5] 76.9% | viability, T/C [6] 55% | viability, T/C [7] 103% | viability, T/C [8] 101% | viability, T/C [9] 93.3% | viability, T/C [10] 91.8% | viability, T/C [11] 80.6% | viability, T/C [12] 54.6% | viability, T/C [13] 114% | viability, T/C [14] 104% | viability, T/C [15] 99.4% | viability, T/C [16] 88.3% | viability, T/C [17] 60% | viability, T/C [18] 36.4% | viability, T/C [19] 99.6% | viability, T/C [20] 104% | viability, T/C [21] 91.9% | viability, T/C [22] 80.7% | viability, T/C [23] 46.5% | viability, T/C [24] 32.6% | viability, T/C [25] 92.6% | viability, T/C [26] 87.8% | viability, T/C [27] 82.1% | viability, T/C [28] 59.3% | viability, T/C [29] 38.9% | viability, T/C [30] 27.1% | viability, T/C [31] 68.9% | viability, T/C [32] 54.6% | viability, T/C [33] 51% | viability, T/C [34] 45% | viability, T/C [35] 36.9% | viability, T/C [36] 33.2%
1710 nM: IC50 (second compound 3.16 µM)

CCN1CCN(Cc2ccc(Nc3ncc(F)c(-c4cc(F)c5nc(C)n(C(C)C)c5c4)n3)nc2)CC1 + Cc1nc(NC(=O)N2CCCC2C(N)=O)sc1-c1ccnc(C(C)(C)C(F)(F)F)c1
299 nM: IC50 (second compound 3.16 µM)
inactive: viability, T/C [37] 83.5% | viability, T/C [38] 103% | viability, T/C [1] 95.6% | viability, T/C [2] 105% | viability, T/C [3] 115% | viability, T/C [4] 105% | viability, T/C [39] 87.8% | viability, T/C [40] 97.9% | viability, T/C [7] 107% | viability, T/C [8] 103% | viability, T/C [9] 121% | viability, T/C [10] 102% | viability, T/C [41] 97% | viability, T/C [42] 96.2% | viability, T/C [13] 95.6% | viability, T/C [14] 107% | viability, T/C [15] 113% | viability, T/C [16] 53.5% | viability, T/C [43] 102% | viability, T/C [44] 103% | viability, T/C [19] 101% | viability, T/C [20] 106% | viability, T/C [21] 90.3% | viability, T/C [22] 35.2% | viability, T/C [45] 107% | viability, T/C [46] 97.5% | viability, T/C [25] 88.9% | viability, T/C [26] 99.3% | viability, T/C [27] 47.5% | viability, T/C [28] 26.9% | viability, T/C [47] 65.6% | viability, T/C [48] 59.4% | viability, T/C [31] 45.6% | viability, T/C [32] 45.8% | viability, T/C [33] 35.2% | viability, T/C [34] 23.7%
> 1000 nM: IC50 (second compound 0.0316 µM) | IC50 (second compound 0.1 µM) | IC50 (second compound 0.316 µM)
35.5 nM: IC50 (second compound 10 µM)
735 nM: IC50 (second compound 1 µM)

Cn1ncc(Cl)c1-c1cc(C(=O)NC(CN)Cc2cccc(F)c2)sc1Cl (stereo not given) + Cc1nc(NC(=O)N2CCCC2C(N)=O)sc1-c1ccnc(C(C)(C)C(F)(F)F)c1
inactive: viability, T/C [1] 86.1% | viability, T/C [2] 106% | viability, T/C [3] 96.3% | viability, T/C [4] 83% | viability, T/C [5] 54.6% | viability, T/C [6] 35.1% | viability, T/C [7] 110% | viability, T/C [8] 97.2% | viability, T/C [9] 93.5% | viability, T/C [10] 60.1% | viability, T/C [11] 53.7% | viability, T/C [12] 34.1% | viability, T/C [13] 114% | viability, T/C [14] 119% | viability, T/C [15] 94% | viability, T/C [16] 61.8% | viability, T/C [17] 44.6% | viability, T/C [18] 29.7% | viability, T/C [19] 109% | viability, T/C [20] 108% | viability, T/C [21] 82.4% | viability, T/C [22] 54% | viability, T/C [23] 39.8% | viability, T/C [24] 21.1% | viability, T/C [25] 107% | viability, T/C [26] 84% | viability, T/C [27] 53.2% | viability, T/C [28] 45% | viability, T/C [29] 32.7% | viability, T/C [30] 16.4% | viability, T/C [31] 60.6% | viability, T/C [32] 52.2% | viability, T/C [33] 40% | viability, T/C [34] 31.9% | viability, T/C [35] 28.4%
2930 nM: IC50 (second compound 0.1 µM)
active: viability, T/C [36] 4.34%
605 nM: IC50 (second compound 3.16 µM)
4060 nM: IC50 (second compound 0.0316 µM)
1430 nM: IC50 (second compound 1 µM)
131 nM: IC50 (second compound 10 µM)
1950 nM: IC50 (second compound 0.316 µM)

Cn1nccc1Nc1nccc(-c2ccn(C(CO)c3ccc(Cl)c(F)c3)c(=O)c2)n1 (stereo not given) + Cc1nc(NC(=O)N2CCCC2C(N)=O)sc1-c1ccnc(C(C)(C)C(F)(F)F)c1
> 10000 nM: IC50 (second compound 0.0316 µM) | IC50 (second compound 0.1 µM) | IC50 (second compound 0.316 µM) | IC50 (second compound 1 µM) | IC50 (second compound 3.16 µM) | IC50 (second compound 10 µM)
inactive: viability, T/C [1] 89.1% | viability, T/C [2] 111% | viability, T/C [3] 106% | viability, T/C [4] 119% | viability, T/C [5] 135% | viability, T/C [6] 133% | viability, T/C [7] 107% | viability, T/C [8] 109% | viability, T/C [9] 110% | viability, T/C [10] 116% | viability, T/C [11] 125% | viability, T/C [12] 118% | viability, T/C [13] 106% | viability, T/C [14] 114% | viability, T/C [15] 104% | viability, T/C [16] 117% | viability, T/C [17] 129% | viability, T/C [18] 138% | viability, T/C [19] 113% | viability, T/C [20] 112% | viability, T/C [21] 111% | viability, T/C [22] 119% | viability, T/C [23] 144% | viability, T/C [24] 136% | viability, T/C [25] 104% | viability, T/C [26] 101% | viability, T/C [27] 96.6% | viability, T/C [28] 121% | viability, T/C [29] 91.2% | viability, T/C [30] 90.1% | viability, T/C [31] 59.8% | viability, T/C [32] 61.7% | viability, T/C [33] 61% | viability, T/C [34] 54.8% | viability, T/C [35] 52.9% | viability, T/C [36] 52.9%

Cn1ncnc1[C@H]1c2n[nH]c(=O)c3cc(F)cc(c23)N[C@@H]1c1ccc(F)cc1 + Cc1nc(NC(=O)N2CCCC2C(N)=O)sc1-c1ccnc(C(C)(C)C(F)(F)F)c1
> 100 nM: IC50 (second compound 0.0316 µM) | IC50 (second compound 0.1 µM) | IC50 (second compound 0.316 µM) | IC50 (second compound 1 µM) | IC50 (second compound 3.16 µM) | IC50 (second compound 10 µM)
inactive: viability, T/C (second compound 0.0316 µM, first compound 0.000316 µM) 96.6% | viability, T/C (second compound 0.0316 µM, first compound 0.001 µM) 102% | viability, T/C [37] 101% | viability, T/C [38] 116% | viability, T/C [1] 116% | viability, T/C [2] 114% | viability, T/C (second compound 0.1 µM, first compound 0.000316 µM) 105% | viability, T/C (second compound 0.1 µM, first compound 0.001 µM) 105% | viability, T/C [39] 91.8% | viability, T/C [40] 106% | viability, T/C [7] 120% | viability, T/C [8] 100% | viability, T/C (second compound 0.316 µM, first compound 0.000316 µM) 111% | viability, T/C (second compound 0.316 µM, first compound 0.001 µM) 103% | viability, T/C [41] 92.6% | viability, T/C [42] 118% | viability, T/C [13] 115% | viability, T/C [14] 105% | viability, T/C (second compound 1 µM, first compound 0.000316 µM) 118% | viability, T/C (second compound 1 µM, first compound 0.001 µM) 109% | viability, T/C [43] 89.9% | viability, T/C [44] 115% | viability, T/C [19] 99.8% | viability, T/C [20] 97.4% | viability, T/C (second compound 3.16 µM, first compound 0.000316 µM) 116% | viability, T/C (second compound 3.16 µM, first compound 0.001 µM) 103% | viability, T/C [45] 98.7% | viability, T/C [46] 109% | viability, T/C [25] 107% | viability, T/C [26] 103% | viability, T/C (second compound 10 µM, first compound 0.000316 µM) 58.2% | viability, T/C (second compound 10 µM, first compound 0.001 µM) 68% | viability, T/C [47] 61.3% | viability, T/C [48] 53.3% | viability, T/C [31] 63.7% | viability, T/C [32] 51.3%
